In data set [1] the target is FGFR1 kinase (Homo sapiens (Human), UniProt P11362). Description: Enzymologic experiment of FGFR1 (TR-FRET). Format: biochemical. As to conditions: FGFR1 kinase activity. The procedure: In this experiment, the inhibitory effect of the compounds on FGFR1 kinase activity was tested by a fluorescence resonance energy transfer (TR-FRET) method, and the half maximal inhibitory concentration (IC50) of the compounds on the FGFR1 kinase activity was determined.
1) 1˜5 μL of FGFR1 enzyme solution was added to a 384-well plate, and the final concentration of the enzyme was 0.1˜5 nM.
2) 1˜5 μL of diluted solution in gradient of the compound was added.
3) 1˜5 μL of a substrate mixture containing substrate polypeptide with a final concentration of 5˜50 nM and ATP with a final concentration of 10˜200 μM was added.
4) The mixture was incubated for 0.5˜3 hours at room temperature.
5) 10 μL of EDTA and a test solution comprising labeled antibody were added, and the plate was incubated for 1 hour at room temperature.
6) The fluorescence signal values of each plate were determined by a microplate reader at 665 nm.
7) The inhibition rates were calculated according to the fluorescence signal values.
8) The IC50 of the compound was obtained by curve fitting according to the inhibition rates at different concentrations, and the enzymatic activity of the specific example compounds is shown in Table 1.

The subject of data set [2] is HuH-7 cells. The data set can be described thus: Inhibition of HuH-7 cell proliferation (CellTiter-Glo). It counts as cell-based. To be noted: Homo sapiens, Huh-7, 72 h, read-out: HuH-7 IC50. The procedure:
In this experiment, the inhibitory effect of the compounds on HuH-7 cell proliferation was tested by a CellTiter-Glo method, and the half maximal inhibitory concentration (IC50) of the compounds on the activity of cell proliferation was determined.
1) A 96-well cell culture plate was seeded with 50˜100 μL of HuH-7 cell suspension at a density of 1˜5×10^4 cells/ml. The culture plate was incubated in an incubator for 16˜24 hours (37° C., 5% CO2).
(§1) 2) Different concentrations of the test compound in a gradient dilution were added to the cells in the culture plate. The culture plate was incubated in an incubator for 72 hours (37° C., 5% CO2).
3) 50˜100 μL of CellTiter-Glo reagent was added to each well. Then, the culture plate was shaken or left to stand for 5˜30 minutes at room temperature.
(§2) 4) The chemiluminescence signal values of each plate were determined by a microplate reader.
(§3) 5) The inhibition rates were calculated according to the chemiluminescence signal values.
(§4) 6) The IC50 of the compound was obtained by curve fitting according to the inhibition rates at different concentrations, and the cell activity of the specific example compounds is shown in Table 2.

The subject of data set [3] is SK-HEP-1 cells. The data set can be described thus: Inhibition of SK-HEP-1 cell proliferation (CellTiter-Glo). Format: cell-based. To be noted: read-out: SK-HEP-1 IC50. On the procedure:
In this experiment, the inhibitory effect of the compounds on SK-HEP-1 cell proliferation was tested by a CellTiter-Glo method, and the half maximal inhibitory concentration (IC50) of the compounds on the activity of cell proliferation was determined.
1) A 96-well cell culture plate was seeded with 50˜100 μL of SK-HEP-1 cell suspension at a density of 1˜5×10^4 cells/ml. The culture plate was incubated in an incubator for 16˜24 hours (37° C., 5% CO2).
as §1
(§5) 3) 50˜100 μL of CellTiter-Glo reagent were added to each well. Then, the culture plate was shaken or left to stand for 5˜30 minutes at room temperature.
as §2, §3, §4

Data set [4] in a line: Pharmacokinetic (PK) analysis in rats. To be noted: SD rats, single intragastric administration, 5 mg/kg; for Peak Time tmax: (sampling in hours); for AUC(0-t) / AUC(0-inf) / half-life / MRT / Cmax: Sprague-Dawley, rat, plasma, po; for AUC(0-t): read-out: Area Under Curve AUC0-t; for AUC(0-inf): read-out: Area Under Curve AUC0-∞; for half-life: read-out: Half-Time t1/2 (converted); for MRT: read-out: Mean Residence Time MRT; for Cmax: read-out: Plasma Concentration Cmax. It counts as in vivo, Sprague Dawley (SD) rats. On the procedure:
1) 0.2 ml of intravenous blood was collected and placed in a K2EDTA test tube. The blood was centrifuged at room temperature at the speed of 1000˜3000×g for 5˜20 minutes to isolate the plasma, which was then stored at −80° C.
2) 160 μL of acetonitrile was added to 40 μL of plasma sample for precipitation, and then the mixture was centrifuged at the speed of 500˜2000×g for 5˜20 minutes.
3) 100 μL of treated solution was taken, and the concentration of the test compound was analyzed by LC/MS/MS. The LC/MS/MS analytical instrument was AB Sciex API 4000. • Liquid chromatography analysis: • Condition of Liquid chromatography: Shimadzu LC-20AD pump • Chromatographic column: phenomenex Gemiu 5 um C18 50×4.6 mm • Mobile phase: Solution A is 0.1% formic acid aqueous solution, and Solution B is acetonitrile • Flow rate: 0.8 mL/min • Elution time: 0-3.5 minutes, the eluent was used as follows: […]

Data set [5] has as its system Hep 3B cells. Description: Inhibition of Hep 3B cell proliferation (CellTiter-Glo). It counts as cell-based. The procedure: In this experiment, the inhibitory effect of the compounds on Hep 3B cell proliferation was tested by a CellTiter-Glo method, and the half maximal inhibitory concentration (IC50) of the compounds on the activity of cell proliferation was determined.
1) A 96-well cell culture plate was seeded with 50˜100 μL of Hep 3B cell suspension at a density of 1˜5×10^4 cells/ml. The culture plate was incubated in an incubator for 16˜24 hours (37° C., 5% CO2).
as §1, §5, §2, §3

[6] abbreviates: Homo sapiens, Hep3B, 72 h, read-out: Hep 3B IC50, Hep 3B cell proliferation, 72 hours, CellTiter-Glo.
Setting [7] is: read-out: Hep 3B IC50, Hep 3B cell proliferation, 72 hours, CellTiter-Glo.

The structures appear in SMILES notation. Read-outs that look alike come from different tables or passages of the source.

Sequence of FGFR1 kinase (P11362 22-822): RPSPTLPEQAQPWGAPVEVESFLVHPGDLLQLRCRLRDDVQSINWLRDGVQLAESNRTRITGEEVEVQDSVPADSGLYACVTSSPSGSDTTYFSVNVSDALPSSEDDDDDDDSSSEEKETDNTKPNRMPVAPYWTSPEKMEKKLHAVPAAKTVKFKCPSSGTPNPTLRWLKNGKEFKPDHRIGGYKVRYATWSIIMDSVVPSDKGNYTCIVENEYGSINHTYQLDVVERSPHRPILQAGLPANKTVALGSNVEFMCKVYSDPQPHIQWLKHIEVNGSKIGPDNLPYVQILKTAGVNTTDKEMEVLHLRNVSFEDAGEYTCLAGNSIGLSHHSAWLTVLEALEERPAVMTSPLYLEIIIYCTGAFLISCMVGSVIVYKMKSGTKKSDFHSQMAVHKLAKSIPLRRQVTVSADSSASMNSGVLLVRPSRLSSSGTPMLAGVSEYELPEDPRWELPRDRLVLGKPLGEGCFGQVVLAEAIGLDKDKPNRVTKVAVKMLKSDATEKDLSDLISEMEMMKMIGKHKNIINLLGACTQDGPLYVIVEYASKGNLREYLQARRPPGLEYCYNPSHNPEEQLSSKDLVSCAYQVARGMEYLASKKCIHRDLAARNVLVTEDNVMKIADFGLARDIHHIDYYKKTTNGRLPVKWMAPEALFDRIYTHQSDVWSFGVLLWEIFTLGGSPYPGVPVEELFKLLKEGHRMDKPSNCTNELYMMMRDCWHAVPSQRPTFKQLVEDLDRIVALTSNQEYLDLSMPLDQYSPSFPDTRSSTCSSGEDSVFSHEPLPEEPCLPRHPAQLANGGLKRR

In data set [1], `CO[C@@H]1CCN(c2cc(NC(=O)N3CCCc4cc(CN5CCCCOC5=O)c(C=O)nc43)ncc2C#N)C1` [Example 31, (R)-N-(5-Cyano-4-(3-methoxypyrrolidin-1-yl)pyridin-2-yl)-7-formyl-6-((2-carbonyl-1,3-oxazepin-3-yl)methyl)-3,4-dihydro-1,8-naphthyridin-1(2H)-carboxamide] gave an IC50 greater than 10000 nM. The IC50 in data set [2] came to 6.5 nM. In data set [3] (Homo sapiens, SK-HEP1, 72 h), the IC50 is greater than 10000 nM. For the same compound, in data set [4], the Peak Time tmax was determined as 2 h, the AUC(0-t) was 1920 ng·h/mL, the AUC(0-inf) is 1920 ng·h/mL and the half-life was 1.27 h. Besides, in data set [4], the MRT came to 4.54 h and the Cmax was 3720 ng/mL.
Turning to `CO[C@H]1CCN(c2cc(NC(=O)N3CCCc4cc(CN5CCCCOC5=O)c(C=O)nc43)ncc2C#N)C1` [Example 32], the IC50 in data set [1] was greater than 10000 nM; in data set [5] (setting [6]) it was 3.1 nM; in data set [2] it was 5.8 nM; in data set [3] (Homo sapiens, SK-HEP1, 72 h), greater than 10000 nM.
Turning to `N#Cc1cnc(NC(=O)N2CCCc3cc(CN4CCOCC4=O)c(C=O)nc32)cc1NCCOC1CCCC1` [Example 5, N-(5-Cyano-4-((2-(cyclopentyloxy)ethyl)amino)pyridin-2-yl)-7-formyl-6-((3-carbonylmorpholino)methyl)-3,4-dihydro-1,8-naphthyridin-1(2H)-carboxamide], the IC50 in data set [1] was greater than 10000 nM; in data set [5] (setting [6]) it was 8.2 nM; in data set [2], 34.9 nM; in data set [3] (Homo sapiens, SK-HEP1, 72 h) it was greater than 10000 nM.
`CO[C@H]1CCN(c2cc(NC(=O)N3CCCc4cc(CN5C(=O)OC[C@@H]5C)c(C=O)nc43)ncc2C#N)C1` [Example 39, N-(5-Cyano-4-((S)-3-methoxypyrrolidin-1-yl)pyridin-2-yl)-7-formyl-6-(((S)-4-methyl-2-carbonyloxazolidin-3-yl)methyl)-3,4-dihydro-1,8-naphthyridin-1(2H)-carboxamide]: the IC50 in data set [1] is greater than 10000 nM; in data set [5] (setting [6]), 39.3 nM; in data set [2], 34.6 nM; in data set [3] (Homo sapiens, SK-HEP1, 72 h), greater than 10000 nM.
In the case of `N#Cc1cnc(NC(=O)N2CCCc3cc(CN4CCCCOC4=O)c(C=O)nc32)cc1N[C@H]1CCOC1` [Example 33], the IC50 in data set [1] is greater than 10000 nM; in data set [5] (setting [6]), 3.7 nM; in data set [2], 7.2 nM; in data set [3] (Homo sapiens, SK-HEP1, 72 h), greater than 10000 nM.
Turning to `CO[C@H]1CCCC1Nc1cc(NC(=O)N2CCCc3cc(CN4CCOCC4=O)c(C=O)nc32)ncc1C#N` (stereo partly drawn) [Example 15, N-(5-Cyano-4-(((cis)-2-methoxycyclopentyl)amino)pyridin-2-yl)-7-formyl-6-((3-carbonylmorpholino)methyl)-3,4-dihydro-1,8-naphthyridin-1(2H)-carboxamide], the IC50 in data set [1] was greater than 10000 nM; in data set [5] (setting [6]), 3 nM; in data set [2] it was 4.9 nM; in data set [3] (Homo sapiens, SK-HEP1, 72 h), greater than 10000 nM.
Turning to `CO[C@H]1CCN(c2cc(NC(=O)N3CCCc4cc(CN5CCCOC5=O)c(C=O)nc43)ncc2C#N)C1` [Example 50, (S)-N-(5-Cyano-4-(3-methoxypyrrolidin-1-yl)pyridin-2-yl)-7-formyl-6-((2-carbonyl-1,3-oxazinan-3-yl)methyl)-3,4-dihydro-1,8-naphthyridin-1(2H)-carboxamide], the IC50 in data set [1] was greater than 10000 nM; in data set [5] (setting [6]), 5.5 nM; in data set [2], 15.3 nM; in data set [3] (Homo sapiens, SK-HEP1, 72 h), greater than 10000 nM.
For the compound `CO[C@H]1CCOCC1Oc1cc(NC(=O)N2CCCc3cc(CN4CCOCC4=O)c(C=O)nc32)ncc1C#N` (stereo partly drawn) [Example 69, N-(5-Cyano-4-(((3,4)-trans-3-methoxytetrahydro-2H-pyran-4-yl)oxy)pyridin-2-yl) -7-formyl-6-((3-carbonylmorpholino)methyl)-3,4-dihydro-1,8-naphthyridin-1(2H)-carboxamide], the IC50 is 22.6 nM in data set [5] (setting [7]) and greater than 10000 nM in data set [3] (SK-HEP-1 cell proliferation, 72 hours, CellTiter-Glo).
Regarding `CO[C@@H]1CCN(c2cc(NC(=O)N3CCCc4cc(CN5CCCOC5=O)c(C=O)nc43)ncc2C#N)C1` [Example 49, (R)-N-(5-Cyano-4-(3-methoxypyrrolidin-1-yl)pyridin-2-yl)-7-formyl-6-((2-carbonyl-1,3-oxazinan-3-yl)methyl)-3,4-dihydro-1,8-naphthyridin-1(2H)-carboxamide], the IC50 in data set [1] was greater than 10000 nM; in data set [5] (setting [6]), 4.4 nM; in data set [2], 11.3 nM; in data set [3] (Homo sapiens, SK-HEP1, 72 h), greater than 10000 nM.
In the case of `COC[C@@H](C)Oc1cc(NC(=O)N2CCCc3cc(CN4CCCCOC4=O)c(C=O)nc32)ncc1C#N` [Example 35], the IC50 was greater than 10000 nM in data set [1]; 2.2 nM in data set [5] (setting [6]); 4.6 nM in data set [2]; greater than 10000 nM in data set [3] (Homo sapiens, SK-HEP1, 72 h).
With `CO[C@H]1CCOCC1Oc1cc(NC(=O)N2CCCc3cc(CN4CCOCC4=O)c(C=O)nc32)ncc1C#N` (stereo partly drawn) [Example 68, N-(5-Cyano-4-(((3,4)-trans-4-methoxytetrahydro-2H-pyran-3-yl)oxy)pyridin-2-yl) -7-formyl-6-((3-carbonylmorpholino)methyl)-3,4-dihydro-1,8-naphthyridin-1(2H)-carboxamide], the IC50 in data set [1] is greater than 10000 nM; in data set [5] (setting [7]), 10.9 nM; in data set [2], 40.8 nM; in data set [3] (Homo sapiens, SK-HEP1, 72 h) it was greater than 10000 nM.
Regarding `COC1CN(c2cc(NC(=O)N3CCCc4cc(CN5CCOCC5=O)c(C=O)nc43)ncc2C#N)C1` [Example 53, N-(5-Cyano-4-(3-methoxyazetidin-1-yl)pyridin-2-yl)-7-formyl-6-((3-carbonylmorpholino)methyl)-3,4-dihydro-1,8-naphthyridin-1(2H)-carboxamide], the IC50 in data set [1] is greater than 10000 nM; in data set [5] (setting [6]), 41.5 nM; in data set [3] (Homo sapiens, SK-HEP1, 72 h) it was greater than 10000 nM.
As to `CO[C@@H]1CCCC1Nc1cc(NC(=O)N2CCCc3cc(CN4CCOCC4=O)c(C=O)nc32)ncc1C#N` (stereo partly drawn) [Example 1, N-(5-Cyano-4-(((trans)-2-methoxycyclopentyl)amino)pyridin-2-yl)-7-formyl-6-((3-carbonylmorpholino)methyl)-3,4-dihydro-1,8-naphthyridin-1(2H)-carboxamide], the IC50 in data set [5] (setting [6]) turned out to be 0.7 nM. Moreover, in data set [2], the IC50 was found to be 3 nM. Besides, the IC50 in data set [3] (Homo sapiens, SK-HEP1, 72 h) was greater than 10000 nM. Besides, in data set [4], the Peak Time tmax is 0.5 h, the AUC(0-t) is 1010 ng·h/mL, the AUC(0-inf) was 5040 ng·h/mL and the half-life is 1.1 h. In data set [4], the mean residence time MRT worked out at 1.1 h and the Cmax came to 1140 ng/mL.

Values taken from patent US11667631B2, “FGFR4 inhibitor, preparation method therefor, and applications thereof” (Jiangsu Hansoh Pharmaceutical Group Co., Ltd., priority 2016, dated 2023).
